Assay results from patent US9833436B2, “Method of preparing drug agglomerate” (PharmaDax Inc., priority 2014, dated 2017).
Structures can show the parent of a compound that is named as a salt. Where two headings read alike, the source gives them in different places.

Assays:
[1] = Compatibility with HPMCP HP-50 by residual content (% assay) after storage; assay type: physicochemical
Description: In comparison, duloxetine crude materials and granulated duloxetine particles having similar size obtained by the conventional wet granulation were also assayed. The granulated duloxetine particles were granulated by the same second solvent (e.g., acetonitrile), which was used in the process of spherical agglomeration, and dried at 50° C. until LOD<1%. An enteric material, hypromellose phthalate (HPMCP) HP-50, which is known to cause degradation of duloxetine, was used in this test.
FIGS. 4A-D are electronic microscopic diagram of duloxetine in different states. […] In Table 7, “C” refers to crude material. “SA” refers to spherical agglomerates. “G” refers to granulated duloxetine particles.

[2] = pH 6.8 PBS 500 mL, basket 100 rpm, 37° C.

CNCC[C@H](Oc1cccc2ccccc12)c1cccs1 [Crude, duloxetine hydrochloride]
% Assay (residual content) [1]: 98.39% | Duloxetine Release (%) ([2]; 3 min): 89.3% | Duloxetine Release (%) ([2]; 6 min): 95.8% | Duloxetine Release (%) ([2]; 9 min): 97.5% | Duloxetine Release (%) ([2]; 12 min): 98.4% | Duloxetine Release (%) ([2]; 15 min): 98.8% | Duloxetine Release (%) ([2]; 18 min): 99.1% | Duloxetine Release (%) ([2]; 21 min): 99.4% | Duloxetine Release (%) ([2]; 30 min): 99.9% | Duloxetine Release (%) ([2]; 60 min): 100.9%
